Measurements published in publication PMC5866846 (Archives of Toxicology, 2017).
Read-outs that look alike come from different tables or passages of the source.

Tests used:
[1] = Formation kinetics of Tam-Bis, (Z)- and (E)-Met E in HLM with increasing substrate concentrations; type: in vitro ADME, human; details: substrate 1 to 50 µM, Michaelis-Menten
Protocol: The reaction was started by adding a NADPH regenerating system (5 mM MgCl2, 5 mM glucose-6-phosphate, 0.5 mM NADP^+ and 10 U glucose-6-phosphate-dehydrogenase in 100 mM sodium phosphate buffer pH 7.4) to the samples and immediately put in a 37 °C water bath for 30 min. The reaction was stopped with the same volume of acetonitrile (ACN) containing 1% of acetic acid together with the corresponding deuterated internal standards. Regarding incubations with Supersomes™ containing UGTs, 5 µg of protein was incubated with 250 mM MgCl2 and 2.5 ng of alamethicin for 30 min on ice, followed by 10 min at 37 °C in a water bath. Subsequently, the Supersomes™ were incubated with 10 µM of substrates (Tam-Bis, (E)- and (Z)-Met E) and the glucuronidation was started by addition of 10 mM of uridine 5′-diphospho-glucuronic acid to the samples in a water bath at 37 °C for 30 min. The reaction was stopped as described above. Metabolites were analyzed by HPLC-ESI-MS/MS.
For the assessment of formation kinetics of Tam-Bis, (E)- and (Z)-Metabolite E, HLM were incubated with increasing substrate concentrations ranging from 1 to 50 µM as described above. As control for each concentration a sample without NADPH-regenerating system was prepared. […]

[2] = test system: upcyte hepatocytes 653-03 2D6; test: Tam metabolism in upcyte hepatocytes 653-03 2D6, metabolites in culture medium; type: in vitro ADME, human; details: cells incubated with 1 µM Tam up to 144 h; for concentration in the culture medium: 653-03 2D6
Protocol: (§1) The medium was replaced every 2–3 days. […].
(§2) The culture medium was collected after 24, 48, 72, 96 and 144 h followed by metabolite measurements using HPLC-ESI-MS/MS.
(§3) Protein was precipitated by the addition of ACN containing 1% of acetic acid and the corresponding deuterated internal standards to the same volume of the sample followed by centrifugation at 20.000 g for 15 min at RT. […] Analytes were separated on a Zorbax Eclipse Plus C18 column (1.8 µm, 100 × 2.1 mm, Agilent technologies) and detected on a 6460 triple quadrupole mass spectrometer (Agilent technologies) in positive ESI MRM mode. Glucuronides of estrogen-like metabolites were detected separately via MS/MS-measurements in negative ESI MRM mode.
(§4) […]. […] […].

[3] = test system: upcyte hepatocytes 653-03; test: Tam metabolism in upcyte hepatocytes 653-03 (parental), metabolites in culture medium; type: in vitro ADME, human; details: cells incubated with 1 µM Tam up to 144 h, parental 653-03
Protocol: as §1, §2, §3, §4

[4] = target: T1, CYP2C8 (Homo sapiens, UniProt P10632); test: Inhibition of CYP2C8 activity in HLM; type: in vitro ADME; details: 200 nM to 10 µM, 10 min pre-incubation
T1 sequence (P10632 1-490): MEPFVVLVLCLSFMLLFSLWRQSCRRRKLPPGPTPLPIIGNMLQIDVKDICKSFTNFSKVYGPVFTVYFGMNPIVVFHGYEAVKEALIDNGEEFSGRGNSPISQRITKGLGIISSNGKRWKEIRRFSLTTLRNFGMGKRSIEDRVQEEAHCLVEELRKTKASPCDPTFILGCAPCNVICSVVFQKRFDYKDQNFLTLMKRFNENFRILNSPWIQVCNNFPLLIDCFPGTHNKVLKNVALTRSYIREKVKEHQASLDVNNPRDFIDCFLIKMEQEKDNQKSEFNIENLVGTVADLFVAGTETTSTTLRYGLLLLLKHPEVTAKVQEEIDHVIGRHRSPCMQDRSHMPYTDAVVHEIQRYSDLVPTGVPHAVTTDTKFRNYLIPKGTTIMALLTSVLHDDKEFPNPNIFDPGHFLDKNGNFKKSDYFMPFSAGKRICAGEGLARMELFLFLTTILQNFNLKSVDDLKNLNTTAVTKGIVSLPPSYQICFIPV

[5] = target: T1, CYP2C8; test: CYP2C8 activity in upcyte hepatocytes after treatment (probe substrate cocktail); type: cell-based; parameters: host or cells: upcyte hepatocytes 653-03 and 653-03 #138 (653-03 2D6); details: for inhibition at 72 h, 5 µM: human, upcyte hepatocytes 653-03 and 653-03 2D6, probe amodiaquine 5 µM, both cell lines
Protocol: (§5) Cells were cultivated in hepatocyte culture medium at 37 °C and 5 °% CO2 in a humidified incubator. Before starting experiments, cells were cultivated in hepatocyte culture medium containing 0.5% (v/v) DMSO (Preculture medium) for 5 days (density of 0.8 × 10^4 cells/cm^2) and were subcultivated in high-performance medium containing 0.1% (v/v) DMSO (Metabolism conditioning medium) for 3–5 days (density of 1.6 × 10^5 cells/cm^2, confluence). The medium was replaced every 2–3 days.
(§6) In HLM and supersome™ incubations the formation rate is given as nmol µg^−1 min^−1 and fmol pmol^−1 min^−1, respectively, and was calculated as the mean ± SD. […] The intrinsic Clearance (Clint) was given as Vmax/Km ratio. […] Activity of CYP enzymes in induction assays is given as the fold-change (mean ± SD) compared to the corresponding DMSO-treated control. […] Gene expression patterns of treated cells are given as fold-change compared to the corresponding DMSO-treated control samples, as described above. […] In induction and inhibition experiments corresponding EC50 and IC50 values were calculated by nonlinear regression. In all experiments a level of probability (p) ≤ 0.05 for statistical testing was considered significant.
(§7) As control 0.05 % DMSO was used. The basal CYP activity and induction of CYP activity compared to the DMSO control were measured via HPLC-ESI-MS/MS.

[6] = target: T2, CYP2C9 (Homo sapiens, UniProt P11712); test: Inhibition of CYP2C9 activity in HLM; type: in vitro ADME; details: 200 nM to 10 µM, 10 min pre-incubation
T2 sequence (P11712 whole entry): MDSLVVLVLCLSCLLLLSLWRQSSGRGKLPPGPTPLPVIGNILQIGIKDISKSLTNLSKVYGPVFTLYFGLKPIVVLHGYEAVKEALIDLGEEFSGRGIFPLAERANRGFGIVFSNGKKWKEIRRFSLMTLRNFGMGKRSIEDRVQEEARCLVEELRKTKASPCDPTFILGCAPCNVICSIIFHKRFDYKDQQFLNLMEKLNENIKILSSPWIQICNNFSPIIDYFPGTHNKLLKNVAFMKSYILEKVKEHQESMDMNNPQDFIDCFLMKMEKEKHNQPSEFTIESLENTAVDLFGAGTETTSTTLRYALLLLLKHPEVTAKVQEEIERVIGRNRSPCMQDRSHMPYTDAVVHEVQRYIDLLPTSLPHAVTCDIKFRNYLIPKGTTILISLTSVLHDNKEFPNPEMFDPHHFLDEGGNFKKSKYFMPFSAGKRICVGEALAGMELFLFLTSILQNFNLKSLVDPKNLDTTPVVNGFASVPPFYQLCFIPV

[7] = target: T3, CYP2C19 (Homo sapiens, UniProt P33261); test: Inhibition of CYP2C19 activity in HLM; type: in vitro ADME; details: 200 nM to 10 µM, 10 min pre-incubation
T3 sequence (P33261 whole entry): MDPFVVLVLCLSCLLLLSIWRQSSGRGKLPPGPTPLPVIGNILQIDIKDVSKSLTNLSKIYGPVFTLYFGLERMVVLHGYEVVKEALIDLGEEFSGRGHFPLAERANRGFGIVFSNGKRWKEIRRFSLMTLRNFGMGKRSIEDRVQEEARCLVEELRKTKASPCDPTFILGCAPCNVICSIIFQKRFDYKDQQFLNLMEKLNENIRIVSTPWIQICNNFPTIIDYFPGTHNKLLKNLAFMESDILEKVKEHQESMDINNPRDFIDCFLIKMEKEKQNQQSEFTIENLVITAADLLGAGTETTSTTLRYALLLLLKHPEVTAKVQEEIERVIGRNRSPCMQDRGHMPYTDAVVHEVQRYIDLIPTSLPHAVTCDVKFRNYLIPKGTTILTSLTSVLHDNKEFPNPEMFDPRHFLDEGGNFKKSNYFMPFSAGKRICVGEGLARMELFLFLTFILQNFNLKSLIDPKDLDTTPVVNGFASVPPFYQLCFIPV

[8] = test system: CYP1A1 gene expression; test: CYP1A1 gene expression in upcyte hepatocytes (Fluidigm RT-PCR); type: cell-based, human; details: 5 µM, 72 h, both cell strains
Excerpt: Differences between induced and control samples were compared using Welch’s t-test (GraphPad Prism, version 5.04), when the fold-change was considered biologically relevant (1.5-fold increase or decrease in fold-changes) and corrected for multiple testing according to Bonferroni. […] An unpaired t-test assuming unequal variances was used for testing of differences in the expression patterns, when the fold-change was considered biologically relevant (1.5-fold increase or decrease in fold-changes) and corrected using Bonferroni adjustments.

[9] = target: T2, CYP2C9; test: CYP2C9 activity in upcyte hepatocytes after treatment (probe substrate cocktail); type: cell-based; parameters: host or cells: upcyte hepatocytes 653-03 and 653-03 #138 (653-03 2D6); details: human; for inhibition at 72 h, 5 µM: probe tolbutamide 100 µM
Protocol: as §5, §6, §7

[10] = test system: estrogen receptor; parameters: method as in Johnson et al. [1989]; Murphy et al. [1990]; details: in vitro, estrogen-dependent breast cancer cell lines; ref Johnson et al. [1989]; Murphy et al. [1990]; cited from earlier work
[11] = test system: CYP2B6; test: CYP2B6 activity in upcyte hepatocytes after treatment (probe substrate cocktail); details: read-out: EC50 of induction of CYP2B6 activity; upcyte hepatocytes, 72 h, 50 pM to 5 µM
Protocol: as §5, §6, §7

[12] = target: T3, CYP2C19; test: CYP2C19 activity in upcyte hepatocytes after treatment (probe substrate cocktail); type: cell-based; parameters: host or cells: upcyte hepatocytes 653-03 and 653-03 #138 (653-03 2D6)
Protocol: as §5, §6, §7

[13] = test system: CYP1A2; test: CYP1A2 activity in upcyte hepatocytes after treatment (probe substrate cocktail); details: read-out: EC50 of induction of CYP1A2 activity, 72 h, 50 pM to 5 µM
Protocol: as §5, §6, §7

[14] = test system: CYP3A4; test: CYP3A4 activity in upcyte hepatocytes after treatment (probe substrate cocktail); details: 72 h
Protocol: as §5, §6, §7

[15] = test system: upcyte hepatocytes 653-03 and 653-03 2D6; test: Tam metabolism in upcyte hepatocytes, cell strain not distinguished; type: in vitro ADME, human; details: cells incubated with 1 µM Tam; highest concentration, decreased over time
Protocol: as §1, §2, §3, §4

[16] = test system: CYP1A2, 2C19, 2C9, 2B6, 3A4 and 2C8; test: CYP activity in upcyte hepatocytes after treatment, all tested CYP isoenzymes together; type: cell-based, human
Protocol: as §5, §6

[17] = read-out: Km, (E)-Met E formation
[18] = read-out: Km, (Z)-Met E formation

## CC/C(=C(\c1ccccc1)c1ccc(OCCN(C)C)cc1)c1ccccc1 [Tam, Tamoxifen, reference compound]
[1]
  V max, (E)-Met E formation: 0.57 pmol/mg/min
  V max, (Z)-Met E formation: 9.2 pmol/mg/min
[1]; [17]
  Km: 11.5 µM
[1]; [18]
  Km: 82.3 µM

## CC/C(=C(\c1ccccc1)c1ccc(OCCNC)cc1)c1ccccc1 [DM-Tam, N-desmethyltamoxifen]
[2]
  concentration in the culture medium: ≤ 14 nM
[3]
  concentration in the culture medium: up to 8 nM
[1]
  V max, (E)-Met E formation: 0.32 pmol/mg/min
  V max, (Z)-Met E formation: 6.1 pmol/mg/min
[1]; [17]
  Km: 11.5 µM
[1]; [18]
  Km: 102 µM

## CC/C(=C(\c1ccc(O)cc1)c1ccc(OCCNC)cc1)c1ccccc1 [Endox, (Z)-endoxifen]
[4]
  IC50: 8.1 µM
[5]
  inhibition at 72 h, 5 µM: ≤ 90%
[2]
  concentration in the culture medium: up to 11 nM
[6]
  IC50: > 10000 nM
  IC50 of CYP2C9 activity: weakly inhibited
[7]; human, human liver microsomes
  IC50 at 15 min: > 10 µM
[8]
  CYP1A1 gene expression, induction vs DMSO control: up to 2.3 fold
[9]
  inhibition at 72 h, 5 µM: 63%

## CC/C(=C(/c1ccc(OCCN(C)C)cc1)c1ccc(O[C@@H]2O[C@H](C(=O)O)[C@@H](O)[C@H](O)[C@H]2O)cc1)c1ccccc1 [4OH-Tam-glucuronide, tamoxifen-4-O-glucuronide]
[2]
  concentration in the supernatant of 653-03 2D6 cells relative to parental cells: up to 25 times

## CCC(=C(c1ccccc1)c1ccc(O)cc1)c1ccccc1 [(Z)-Met E, 4-[1,2-diphenylbut-1-en-1-yl]phenol]
[10]
  agonism regarding estrogen-regulated mRNA expression: full agonists
[5]; upcyte hepatocytes, 72 h, 50 pM to 5 µM, read-out: EC50 of induction of CYP2C8 activity
  EC50: > 5 µM
[11]
  EC50: > 5 µM
[12]; upcyte hepatocytes, 72 h, 50 pM to 5 µM, read-out: EC50 of induction of CYP2C19 activity
  EC50: > 5 µM
[13]
  EC50: > 5 µM
[14]; 5 µM, parental and derived cell line
  induction of CYP3A4 activity compared to DMSO control: weakly induced
[14]; read-out: EC50 of induction of CYP3A4 activity, upcyte hepatocytes, 50 pM to 5 µM
  EC50: 308 nM
[15]
  concentration in the supernatant of the cells: up to 440 pM
[1]
  V max, Bisphenol formation: 17.2 pmol/mg/min
[1]; read-out: Km, Bisphenol formation
  Km: 8.2 µM
[8]
  CYP1A1 gene expression, induction vs DMSO control: 3.3 fold
[9]; probe tolbutamide (100 µM), upcyte hepatocytes, 50 pM to 5 µM, read-out: EC50 of induction of CYP2C9 activity
  EC50 at 72 h: > 5 µM

## CC/C(=C(\c1ccc(O)cc1)c1ccc(OCCN)cc1)c1ccccc1 [Norendox, N-didesmethyl-4-hydroxytamoxifen]
[4]
  IC50: 2.4 µM
[5]
  inhibition at 72 h, 5 µM: 62.5%
[6]
  IC50: 210 nM
[7]
  IC50: 320 nM
[12]; human, probe S-mephenytoin 100 µM, 5 µM
  inhibition at 72 h, 5 µM: ≤ 70%
[9]
  inhibition at 72 h, 5 µM: 93%

## CC/C(=C(\c1ccccc1)c1ccc(OCCN)cc1)c1ccccc1 [DDM-Tam, N-didesmethyl-tamoxifen]
[1]
  V max, (E)-Met E formation: 0.70 pmol/mg/min
  V max, (Z)-Met E formation: 5.2 pmol/mg/min
[1]; [17]
  Km: 20.7 µM
[1]; [18]
  Km: 55.1 µM

## CCC(=C(c1ccccc1)c1ccc(O)cc1)c1ccccc1 [Met E, 4-[1,2-diphenylbut-1-en-1-yl]phenol]
[16]; 5 µM, 72 h
  inhibitory effect on the tested CYP enzymes: did not act as CYP inhibitors

## C[C@]12CC[C@@H]3c4ccc(O)cc4CC[C@H]3[C@@H]1CC[C@@H]2O [estradiol, reference compound]
[16]; 500 nM, 3 days
  impact on CYP activities: did not have an impact
